Patent US4753953A, “Pyridonecarboxylic acid derivatives and antibacterial pharmaceutical compositions thereof” (priority 1985, dated 1988)
In brackets after ≈: the same amount, converted by molar mass. Like-named read-outs stand apart in the source and are kept apart here.

Legend:
[1] = tested on: Bacillus subtilis PCI 219; test: MIC, in vitro antibacterial activity (standard strains); type: cell-based; details: Bacillus subtilis, PCI219; 10^6 cells/ml; Gram +; read-out: MIC
S. epidermidis IID 866 = test: as above; type: cell-based; details: Staphylococcus epidermidis, IID866; 10^6 cells/ml; Gram +; read-out: MIC
[2] = tested on: Escherichia coli NIHJ JC-2; test: as above; type: cell-based; details: Escherichia coli, NIHJJC2
[3] = tested on: Proteus vulgaris IFO 3167; test: as above; type: cell-based; details: Proteus vulgaris, IFO3167; 10^6 cells/ml; Gram -; read-out: MIC
P. mirabilis IID 994 = test: as above; type: cell-based; details: Proteus mirabilis, IID994; 10^6 cells/ml; Gram -; read-out: MIC
[4] = tested on: Klebsiella pneumoniae KY(GN)6445; test: as above; type: cell-based; details: Klebsiella pneumoniae; 10^6 cells/ml; Gram -; read-out: MIC
[5] = tested on: Serratia marcescens IID 618; test: as above; type: cell-based; details: Serratia marcescens, IID618; 10^6 cells/ml; Gram -; read-out: MIC
Shigella sonnei IID 969 = test: as above; type: cell-based; details: Shigella sonnei, IID969; 10^6 cells/ml; Gram -; read-out: MIC
Method: Minimal inhibitory concentrations (MICs) were determined in accordance with the method recommended by Japan Society of Chemotherapy.

[6] = tested on: Pseudomonas aeruginosa V-1; test: as above; type: cell-based; details: Pseudomonas aeruginosa, V1; 10^6 cells/ml; Gram -; read-out: MIC
P. maltophilia GIFU 2491 = test: as above; type: cell-based; details: Stenotrophomonas maltophilia, GIFU2491; 10^6 cells/ml; Gram -; read-out: MIC
[7] = tested on: Acinetobacter anitratus IID 876; test: as above; type: cell-based; details: Acinetobacter calcoaceticus, IID876; 10^6 cells/ml; Gram -; read-out: MIC
[8] = tested on: Bacteroides fragilis GM 7000; test: as above; type: cell-based; details: Bacteroides fragilis, GM7000; 10^6 cells/ml; Gram -; read-out: MIC
B. vulgatus KYA 29327 = test: as above; type: cell-based; details: Phocaeicola vulgatus, KYA29327; 10^6 cells/ml; Gram -; read-out: MIC
F. varium KYA 8501 = test: as above; type: cell-based; details: Fusobacterium varium, KYA8501; 10^6 cells/ml; Gram -; read-out: MIC
[9] = tested on: Propionibacterium acens 11828; test: as above; type: cell-based; details: Propionibacterium, 11828; 10^6 cells/ml; Gram +; read-out: MIC
C. ramosum = test: as above; type: cell-based; details: Thomasclavelia ramosa; 10^6 cells/ml; Gram +; read-out: MIC
MR S. aureus KYB 623 [10] = test: MIC of the infecting strain MR S. aureus KYB 623; type: cell-based; details: Staphylococcus aureus; Table 3, strain of the mouse infection
S. pneumoniae S-4288 [11] = test: MIC of the infecting strain S. pneumoniae S-4288; type: cell-based; details: Streptococcus pneumoniae, S4288; Table 4, strain of the mouse infection
E. coli ML 4707 = test: Therapeutic efficacy against systemic infections in mice, E. coli ML 4707; details: Escherichia coli, ML4707, in Mus musculus, po, 1 h
MR S. aureus KYB 623 [12] = test: Therapeutic efficacy against systemic infections in mice, MR S. aureus KYB 623; details: Staphylococcus aureus, in Mus musculus, po, 1 h
S. pneumoniae S-4288 [13] = test: Therapeutic efficacy against systemic infections in mice, S. pneumoniae S-4288; details: Streptococcus pneumoniae, S4288, in Mus musculus, po, 1 h
E. limosum KYA 8486 = test: MIC, in vitro antibacterial activity (standard strains); type: cell-based; details: Eubacterium limosum, KYA8486; 10^6 cells/ml; Gram +; read-out: MIC
[14] = 10^6 cells/ml, Gram -, read-out: MIC

Compound	MIC [1] [µg/mL]	MIC (S. epidermidis IID 866) [µg/mL]	MIC [2, 14] [µg/mL]	MIC [3] [µg/mL]	MIC (P. mirabilis IID 994) [µg/mL]	MIC [4] [µg/mL]	MIC [5] [µg/mL]	MIC (Shigella sonnei IID 969) [µg/mL]	MIC [6] [µg/mL]	MIC (P. maltophilia GIFU 2491) [µg/mL]	MIC [7] [µg/mL]	MIC [8] [µg/mL]	MIC (B. vulgatus KYA 29327) [µg/mL]	MIC (F. varium KYA 8501) [µg/mL]	MIC [9] [µg/mL]	MIC (C. ramosum) [µg/mL]	MIC (E. limosum KYA 8486) [µg/mL]	further results
C[C@H]1CN(c2c(F)cc3c(=O)c(C(=O)O)cn(C4CC4)c3c2Cl)C[C@H]1N (relative stereo) [Example 16, 7-(cis-3-Amino-4-methyl-1-pyrrolidinyl)-8-chloro-1-cyclopropyl-6-fluoro-1,4-dihydro-4-oxo-3-quinolinecarboxylic acid]	0.0125 (≈ 0.0329 µM)	0.05 (≈ 0.132 µM)	0.0063 (≈ 0.0166 µM)	0.0125 (≈ 0.0329 µM)	0.025 (≈ 0.0658 µM)	0.025 (≈ 0.0658 µM)	0.05 (≈ 0.132 µM)	0.0063 (≈ 0.0166 µM)	0.1 (≈ 0.263 µM)	0.05 (≈ 0.132 µM)	0.025 (≈ 0.0658 µM)	0.05 (≈ 0.132 µM)	0.05 (≈ 0.132 µM)	0.78 (≈ 2.05 µM)	0.78 (≈ 2.05 µM)	0.39 (≈ 1.03 µM)	–	MIC (MR S. aureus KYB 623 [10]): 0.025 µg/mL; MIC (S. pneumoniae S-4288 [11]): 0.1 µg/mL; ED50 (E. coli ML 4707): 1 mg/kg; ED50 (MR S. aureus KYB 623 [12]): 3.7 mg/kg; ED50 (S. pneumoniae S-4288 [13]): 12.1 mg/kg
C[C@@H]1CN(c2c(F)cc3c(=O)c(C(=O)O)cn(C4CC4)c3c2Cl)C[C@H]1N (relative stereo) [Example 17, 7-(trans-3-Amino-4-methyl-1-pyrrolidinyl)-8-chloro-1-cyclopropyl-6-fluoro-1,4-dihydro-4-oxo-3-quinolinecarboxylic acid]	0.0125 (≈ 0.0329 µM)	0.05 (≈ 0.132 µM)	0.0063 (≈ 0.0166 µM)	0.0125 (≈ 0.0329 µM)	0.025 (≈ 0.0658 µM)	0.0125 (≈ 0.0329 µM)	0.05 (≈ 0.132 µM)	0.0063 (≈ 0.0166 µM)	0.1 (≈ 0.263 µM)	0.05 (≈ 0.132 µM)	0.025 (≈ 0.0658 µM)	0.05 (≈ 0.132 µM)	0.05 (≈ 0.132 µM)	0.78 (≈ 2.05 µM)	0.78 (≈ 2.05 µM)	0.39 (≈ 1.03 µM)	–	MIC (MR S. aureus KYB 623 [10]): 0.0125 µg/mL; ED50 (MR S. aureus KYB 623 [12]): 2.1 mg/kg
C[C@H]1CN(c2cc3c(cc2F)c(=O)c(C(=O)O)cn3C2CC2)C[C@H]1N (relative stereo) [Example 33, 7-(cis-3-Amino-4-methyl-1-pyrrolidinyl)-1-cyclopropyl-6-fluoro-1,4-dihydro-4-oxo-3-quinolinecarboxylic acid]	0.05 (≈ 0.145 µM)	0.1 (≈ 0.29 µM)	0.05 (≈ 0.145 µM)	0.05 (≈ 0.145 µM)	0.05 (≈ 0.145 µM)	0.05 (≈ 0.145 µM)	0.05 (≈ 0.145 µM)	0.05 (≈ 0.145 µM)	0.2 (≈ 0.579 µM)	0.39 (≈ 1.13 µM)	0.1 (≈ 0.29 µM)	1.56 (≈ 4.52 µM)	6.25 (≈ 18.1 µM)	12.5 (≈ 36.2 µM)	12.5 (≈ 36.2 µM)	6.25 (≈ 18.1 µM)	0.2 (≈ 0.579 µM)	–
CC1CN(c2c(F)cc3c(=O)c(C(=O)O)cn(C4CC4)c3c2Cl)CC1CN (stereo not shown) [Example 1, 7-(3-Aminomethyl-4-methyl-1-pyrrolidinyl)-8-chloro-1-cyclopropyl-6-fluoro-1,4-dihydro-4-oxo-3-quinolinecarboxylic acid]	0.0125 (≈ 0.0317 µM)	0.0125 (≈ 0.0317 µM)	0.025 (≈ 0.0635 µM)	0.05 (≈ 0.127 µM)	0.05 (≈ 0.127 µM)	0.05 (≈ 0.127 µM)	0.1 (≈ 0.254 µM)	0.025 (≈ 0.0635 µM)	0.1 (≈ 0.254 µM)	0.1 (≈ 0.254 µM)	0.05 (≈ 0.127 µM)	≤ 0.1	0.1 (≈ 0.254 µM)	0.39 (≈ 0.99 µM)	0.2 (≈ 0.508 µM)	0.2 (≈ 0.508 µM)	0.39 (≈ 0.99 µM)	–
CC1CN(c2c(F)cc3c(=O)c(C(=O)O)cn(C4CC4)c3c2Cl)CC1N (stereo not shown) [Example 7, 7-(3-Amino-4-methyl-1-pyrrolidinyl)-8-chloro-1-cyclopropyl-6-fluoro-1,4-dihydro-4-oxo-3-quinolinecarboxylic acid]	0.0125 (≈ 0.0329 µM)	0.05 (≈ 0.132 µM)	0.0063 (≈ 0.0166 µM)	0.0125 (≈ 0.0329 µM)	0.025 (≈ 0.0658 µM)	0.0125 (≈ 0.0329 µM)	0.05 (≈ 0.132 µM)	0.0063 (≈ 0.0166 µM)	0.2 (≈ 0.527 µM)	0.05 (≈ 0.132 µM)	0.025 (≈ 0.0658 µM)	0.1 (≈ 0.263 µM)	0.1 (≈ 0.263 µM)	0.78 (≈ 2.05 µM)	0.78 (≈ 2.05 µM)	0.78 (≈ 2.05 µM)	0.2 (≈ 0.527 µM)	–
CC1CN(c2c(F)cc3c(=O)c(C(=O)O)cn(C4CC4)c3c2F)CC1N.Cl (stereo not shown) [Example 11, 7-(3-Amino-4-methyl-1-pyrrolidinyl)-1-cyclopropyl-6,8-difluoro-1,4-dihydro-4-oxo-3-quinolinecarboxylic acid hydrochloride]	0.025	0.1	–	0.025	0.05	0.025	0.05	0.025	0.39	0.1	0.05	0.78	0.39	1.56	3.13	1.56	0.78	MIC [2]: 0.0125 µg/mL; MIC (S. pneumoniae S-4288 [11]): 0.2 µg/mL; ED50 (E. coli ML 4707): 1 mg/kg; ED50 (S. pneumoniae S-4288 [13]): 20.7 mg/kg
CNCC1CN(c2c(F)cc3c(=O)c(C(=O)O)cn(C4CC4)c3c2Cl)CC1C (stereo not shown) [Example 12, 8-Chloro-1-cyclopropyl-6-fluoro-1,4-dihydro-7-(3-methylaminomethyl-4-methyl-1-pyrrolidinyl)-4-oxo-3-quinolinecarboxylic acid]	0.0125 (≈ 0.0306 µM)	0.05 (≈ 0.123 µM)	0.05 (≈ 0.123 µM)	0.05 (≈ 0.123 µM)	0.2 (≈ 0.49 µM)	0.05 (≈ 0.123 µM)	0.2 (≈ 0.49 µM)	0.025 (≈ 0.0613 µM)	0.39 (≈ 0.956 µM)	0.2 (≈ 0.49 µM)	0.2 (≈ 0.49 µM)	0.2 (≈ 0.49 µM)	0.2 (≈ 0.49 µM)	0.78 (≈ 1.91 µM)	0.78 (≈ 1.91 µM)	0.39 (≈ 0.956 µM)	0.39 (≈ 0.956 µM)	–
CNCC1CN(c2c(F)cc3c(=O)c(C(=O)O)cn(C4CC4)c3c2F)CC1C (stereo not shown) [Example 13, 1-Cyclopropyl-6,8-difluoro-1,4-dihydro-7-(3-methylaminomethyl-4-methyl-1-pyrrolidinyl)-4-oxo-3-quinolinecarboxylic acid]	0.025 (≈ 0.0639 µM)	0.05 (≈ 0.128 µM)	0.05 (≈ 0.128 µM)	0.05 (≈ 0.128 µM)	0.2 (≈ 0.511 µM)	0.05 (≈ 0.128 µM)	0.2 (≈ 0.511 µM)	0.05 (≈ 0.128 µM)	0.39 (≈ 0.996 µM)	0.39 (≈ 0.996 µM)	0.1 (≈ 0.255 µM)	0.78 (≈ 1.99 µM)	1.56 (≈ 3.99 µM)	1.56 (≈ 3.99 µM)	1.56 (≈ 3.99 µM)	0.78 (≈ 1.99 µM)	1.56 (≈ 3.99 µM)	–
CCNCC1CN(c2c(F)cc3c(=O)c(C(=O)O)cn(C4CC4)c3c2Cl)CC1C (stereo not shown) [Example 14, 8-Chloro-1-cyclopropyl-7-(3-ethylaminomethyl-4-methyl-1-pyrrolidinyl)-6-fluoro-1,4-dihydro-4-oxo-3-quinolinecarboxylic acid]	0.0125 (≈ 0.0296 µM)	0.0125 (≈ 0.0296 µM)	0.025 (≈ 0.0593 µM)	0.05 (≈ 0.119 µM)	0.1 (≈ 0.237 µM)	0.05 (≈ 0.119 µM)	0.2 (≈ 0.474 µM)	0.025 (≈ 0.0593 µM)	0.78 (≈ 1.85 µM)	0.39 (≈ 0.924 µM)	0.1 (≈ 0.237 µM)	0.1 (≈ 0.237 µM)	≤ 0.05	1.56 (≈ 3.7 µM)	1.56 (≈ 3.7 µM)	0.2 (≈ 0.474 µM)	0.78 (≈ 1.85 µM)	–
CCNCC1CN(c2c(F)cc3c(=O)c(C(=O)O)cn(C4CC4)c3c2F)CC1C (stereo not shown) [Example 15, 1-Cyclopropyl-7-(3-ethylaminomethyl-4-methyl-1-pyrrolidinyl)-6,8-difluoro-1,4-dihydro-4-oxo-3-quinolinecarboxylic acid]	0.025 (≈ 0.0617 µM)	0.05 (≈ 0.123 µM)	0.05 (≈ 0.123 µM)	0.1 (≈ 0.247 µM)	0.1 (≈ 0.247 µM)	0.05 (≈ 0.123 µM)	0.2 (≈ 0.493 µM)	0.05 (≈ 0.123 µM)	0.78 (≈ 1.92 µM)	0.39 (≈ 0.962 µM)	0.1 (≈ 0.247 µM)	0.78 (≈ 1.92 µM)	0.78 (≈ 1.92 µM)	1.56 (≈ 3.85 µM)	3.13 (≈ 7.72 µM)	0.78 (≈ 1.92 µM)	1.56 (≈ 3.85 µM)	–
